Reference: US20240374587A1, “MEDICINE FOR PREVENTION AND TREATMENT OF DISEASES LINKED TO ANTI-OBESITY ACTIVITY” (Shionogi & Co., Ltd., priority 2021, published 2024)
pIC50: −log10 of the molar value.

Experiments:
human MGAT2 = human MGAT2 (Homo sapiens (Human), UniProt Q3SYC2); assay: Measurement of human MGAT2 inhibitory activity; format: biochemical; settings: concentration exhibiting 50% enzyme inhibition
Experimental: Solutions of the compounds of the present invention in DMSO were each aliquoted into 0.2·μL portions in a 384-well polystyrene microplate produced by Corning Incorporated, and 5 μL of an enzyme solution prepared with an assay buffer (100 mmol/L phosphate buffer (pH 7.4) containing 2 mmol/L DTT) and 5 μL of a substrate solution (100 mmol/L phosphate buffer (pH 7.4), 30 μmol/L 2-Oleoylglycerol, 10 μmol/L Oleoyl-CoA) were added thereto, and the resultant was stirred and centrifuged, and incubated in a moist chamber at room temperature for 1 hour. After enzymatic reaction, 50 μL of a quenching solution (containing 0.2 μmol/L Diolein-d5, 0.4% formic acid, and 50% isopropanol) containing Internal Standard (IS) was added to terminate the reaction, and the resultant was sealed in a plate produced by Shimadzu GLC Ltd., and then stirred and centrifuged, and measurement was performed by using an electrospray ionization method with a RapidFire360 and Agilent 6550 Q-TOF mass spectrometer. Diolein as a reaction product (P) of 2-Oleoylglycerol as the substrate and an ammonium adduct ion of the IS were detected, and the peak intensity ratio, P/IS, was calculated from the peak heights to evaluate the inhibitory activity. Inhibitory activities with/without addition of enzyme were defined as Control (+)/Control (−), respectively, and the respective % inhibitions were defined as 0% inhibition and 100% inhibition. The inhibitory activity was calculated from the formula below with TIBCO Spotfire (produced by TIBCO Software Inc.) with the peak intensity ratio, P/IS, at the time of addition of the compound of the present invention being as Sample: […]

C57BL/6j mice (DIO mice) = assay: Anti-obesity effect test in DIO mice (body weight, food consumption); format: in vivo; design: concentration or dose not given beside the values; settings: for Rate of decrease in body weight relative to control group: at final administration (Day 0 to Day 35, once a day)
Experimental: The anti-obesity effect of the compound and/or agent according to the present invention was examined by using C57BL/6j mice (DIO mice) provided with a high-fat diet (TestDiet; 58Y1).
Five-week-old male C57BL/6j mice (CLEA Japan. Inc.) were purchased, and grown with feeding of a high-fat diet under 12-hour light-dark cycles for 4 weeks to produce DIO mice. A medium (0.5% HPMC and physiological saline) was administered once a day from 3 weeks before administration of the compound. Randomization was performed for grouping (n=9 to 10) on the basis of body weight and change in food consumption during the period of administration for conditioning. From Day 0 to Day 35, gavage of vehicle (0.5% HPMC and physiological saline) (hereinafter, Control group), gavage of Compound (A) according to the present invention (hereinafter, (A)-administration group), subcutaneous administration of GLP-1 formulation (liraglutide or semaglutide) as Compound (B) according to the present invention (hereinafter, (B)-administration group), or both (hereinafter, the combined administration group) were performed once a day. The GLP-1 formulation was formulated in an increasing dose, and liraglutide and semaglutide were administered at 4 to 20 μg/kg and:3 to 15 μg/kg, respectively, once a day. During the administration period, daily body weight measurement and food consumption measurement once a week were performed.

[1] = 1st week of administration, liraglutide study
[2] = 1st week of administration, semaglutide study
[3] = 2nd week of administration, liraglutide study
[4] = 2nd week of administration, semaglutide study
[5] = 3rd week of administration, liraglutide study
[6] = 3rd week of administration, semaglutide study
[7] = 4th week of administration, liraglutide study
[8] = 4th week of administration, semaglutide study
[9] = 5th week of administration, liraglutide study
[10] = 5th week of administration, semaglutide study

human MGAT2, sequence (Q3SYC2 whole entry): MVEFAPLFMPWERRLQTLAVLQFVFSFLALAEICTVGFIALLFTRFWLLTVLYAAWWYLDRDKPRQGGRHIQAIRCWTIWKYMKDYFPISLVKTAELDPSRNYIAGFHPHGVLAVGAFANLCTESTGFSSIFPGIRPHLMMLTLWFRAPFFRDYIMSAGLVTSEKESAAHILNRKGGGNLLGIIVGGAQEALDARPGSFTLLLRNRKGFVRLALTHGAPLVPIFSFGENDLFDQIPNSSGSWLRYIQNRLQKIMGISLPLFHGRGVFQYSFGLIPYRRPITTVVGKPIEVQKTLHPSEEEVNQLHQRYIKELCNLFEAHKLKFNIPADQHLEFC

pIC50 (human MGAT2) | Compound | Rate of decrease in food consumption relative to control group (C57BL/6j mice (DIO mice); [1]) | Rate of decrease in food consumption relative to control group (C57BL/6j mice (DIO mice); [2]) | Rate of decrease in food consumption relative to control group (C57BL/6j mice (DIO mice); [3]) | Rate of decrease in food consumption relative to control group (C57BL/6j mice (DIO mice); [4]) | Rate of decrease in food consumption relative to control group (C57BL/6j mice (DIO mice); [5]) | Rate of decrease in food consumption relative to control group (C57BL/6j mice (DIO mice); [6]) | Rate of decrease in food consumption relative to control group (C57BL/6j mice (DIO mice); [7]) | Rate of decrease in food consumption relative to control group (C57BL/6j mice (DIO mice); [8]) | Rate of decrease in food consumption relative to control group (C57BL/6j mice (DIO mice); [9]) | Rate of decrease in food consumption relative to control group (C57BL/6j mice (DIO mice); [10]) | Rate of decrease in body weight relative to control group (C57BL/6j mice (DIO mice); liraglutide study (FIG. 1)) | Rate of decrease in body weight relative to control group (C57BL/6j mice (DIO mice); semaglutide study (FIG. 2))
8.54 | CS(=O)(=O)CC(=O)Nc1c2c(nn1CCCOC(F)(F)F)C[C@@]1(CCOc3cc(OCC(F)(F)F)ccc31)NC2=O [II-121] | 18.9% | 15.7% | 12.7% | 10.5% | 9.9% | 7.3% | 8.5% | 3.9% | 7.5% | 1.6% | 10.0% | 5.5%
– | CCCCCCCCCCCCCCCC(=O)N[C@@H](CCC(=O)NCCCC[C@H](NC(=O)[C@H](C)NC(=O)[C@H](C)NC(=O)[C@H](CCC(N)=O)NC(=O)CNC(=O)[C@H](CCC(=O)O)NC(=O)[C@H](CC(C)C)NC(=O)[C@H](Cc1ccc(O)cc1)NC(=O)[C@H](CO)NC(=O)[C@H](CO)NC(=O)[C@@H](NC(=O)[C@H](CC(=O)O)NC(=O)[C@H](CO)NC(=O)[C@@H](NC(=O)[C@H](Cc1ccccc1)NC(=O)[C@@H](NC(=O)CNC(=O)[C@H](CCC(=O)O)NC(=O)[C@H](C)NC(=O)[C@@H](N)Cc1cnc[nH]1)[C@@H](C)O)[C@@H](C)O)C(C)C)C(=O)N[C@@H](CCC(=O)O)C(=O)N[C@@H](Cc1ccccc1)C(=O)N[C@H](C(=O)N[C@@H](C)C(=O)N[C@@H](Cc1c[nH]c2ccccc12)C(=O)N[C@@H](CC(C)C)C(=O)N[C@H](C(=O)N[C@@H](CCCNC(=N)N)C(=O)NCC(=O)N[C@@H](CCCNC(=N)N)C(=O)NCC(=O)O)C(C)C)[C@@H](C)CC)C(=O)O [Liraglutide, liraglutide, reference compound] | 4.6% | – | 9.4% | – | 3.1% | – | 2.4% | – | 1.5% | – | 4.2% | –
– | semaglutide [reference compound] | – | 8.5% | – | 33.1% | – | 18.2% | – | 10.9% | – | 6.0% | – | 18.0%
